Measured values taken from patent US9944602B2, “Piperidinone herbicides” (E. I. DU PONT DE NEMOURS AND COMPANY, priority 2014, dated 2018).

Experiments:
Assay type in all cases: in vivo
[1] = test system: ryegrass, Italian (Italian ryegrass, Lolium multiflorum); assay: Test A preemergence ryegrass, Italian; conditions: 0 to 100 scale, 0 no effect, 100 complete control
Excerpt: (§1) Seeds of plant species selected from barnyardgrass (Echinochloa crus-galli), kochia (Kochia scoparia), ragweed (common ragweed, Ambrosia elatior), ryegrass, Italian (Italian ryegrass, Lolium multiflorum), crabgrass, large (large crabgrass, Digitaria sanguinalis), foxtail, giant (giant foxtail, Setaria faberii), morningglory (Ipomoea spp.), pigweed (Amaranthus retroflexus), velvetleaf (Abutilon theophrasti), wheat (Triticum aestivum), and corn (Zea mays) were planted into a blend of loam soil and sand and treated preemergence with a directed soil spray using test chemicals formulated in a non-phytotoxic solvent mixture which included a surfactant.
(§2) At the same time, plants selected from these crop and weed species and also blackgrass (Alopecurus myosuroides), and galium (catchweed bedstraw, Galium aparine) were planted in pots containing the same blend of loam soil and sand and treated with postemergence applications of test chemicals formulated in the same manner. Plants ranged in height from 2 to 10 cm and were in the one- to two-leaf stage for the postemergence treatment. Treated plants and untreated controls were maintained in a greenhouse for approximately 10 d, after which time all treated plants were compared to untreated controls and visually evaluated for injury. Plant response ratings, summarized in Table A, are based on a 0 to 100 scale where 0 is no effect and 100 is complete control. A dash (-) response means no test result.

[2] = test system: barnyardgrass (Echinochloa crus-galli); assay: Test B flooded paddy test barnyardgrass; conditions: Table B, Flood, scale 0 to 100
Description: (§3) Plant species in the flooded paddy test selected from rice (Oryza sativa), sedge, umbrella (small-flower umbrella sedge, Cyperus difformis), ducksalad (Heteranthera limosa), and barnyardgrass (Echinochloa crus-galli) were grown to the 2-leaf stage for testing. At the time of treatment, test pots were flooded to 3 cm above the soil surface, treated by application of test compounds directly to the paddy water, and then maintained at that water depth for the duration of the test. Treated plants and controls were maintained in a greenhouse for 13 to 15 d, after which time all species were compared to controls and visually evaluated. […] A dash (-) response means no test result.

[3] = test system: ryegrass, Italian (Italian ryegrass, Lolium multiflorum); assay: Test A postemergence ryegrass, Italian; conditions: 0 to 100 scale, 0 is no effect, 100 is complete control
Excerpt: as §1, §2

[4] = test system: foxtail, giant (giant foxtail, Setaria faberii); assay: Test A postemergence foxtail, giant; conditions: 0 to 100 scale, 0 is no effect, 100 is complete control
Excerpt: as §1, §2

corn (Zea mays) = assay: Test A postemergence corn; conditions: 0 to 100 scale, 0 is no effect, 100 is complete control
Excerpt: as §1, §2

[5] = test system: pigweed (Amaranthus retroflexus); assay: Test A postemergence pigweed; conditions: 0 to 100 scale, 0 is no effect, 100 is complete control
Excerpt: as §1, §2

[6] = test system: galium (catchweed bedstraw, Galium aparine); assay: Test A postemergence galium; conditions: 0 to 100 scale, 0 is no effect, 100 is complete control
Excerpt: as §1, §2

kochia (Kochia scoparia) [7] = assay: Test A preemergence kochia; conditions: 0 to 100 scale, 0 no effect, 100 complete control
Excerpt: as §1, §2

[8] = test system: barnyardgrass (Echinochloa crus-galli); assay: Test A preemergence barnyardgrass; conditions: 0 to 100 scale, 0 no effect, 100 complete control
Excerpt: as §1, §2

[9] = test system: ragweed (common ragweed, Ambrosia elatior); assay: Test A postemergence ragweed; conditions: 0 to 100 scale, 0 is no effect, 100 is complete control
Excerpt: as §1, §2

[10] = test system: pigweed (Amaranthus retroflexus); assay: Test A preemergence pigweed; conditions: 0 to 100 scale, 0 no effect, 100 complete control
Excerpt: as §1, §2

[11] = test system: blackgrass (Alopecurus myosuroides); assay: Test A postemergence blackgrass; conditions: 0 to 100 scale, 0 is no effect, 100 is complete control
Excerpt: as §1, §2

[12] = test system: foxtail, giant (giant foxtail, Setaria faberii); assay: Test A preemergence foxtail, giant; conditions: 0 to 100 scale, 0 no effect, 100 complete control
Excerpt: as §1, §2

[13] = test system: barnyardgrass (Echinochloa crus-galli); assay: Test A postemergence barnyardgrass; conditions: 0 to 100 scale, 0 is no effect, 100 is complete control
Excerpt: as §1, §2

[14] = test system: sedge, umbrella (small-flower umbrella sedge, Cyperus difformis); assay: Test B flooded paddy test sedge, umbrella; conditions: Table B, Flood, scale 0 to 100
Description: as §3

kochia (Kochia scoparia) [15] = assay: Test A postemergence kochia; conditions: 0 to 100 scale, 0 is no effect, 100 is complete control
Excerpt: as §1, §2

rice (Oryza sativa) = assay: Test B flooded paddy test rice; conditions: Table B, Flood, scale 0 to 100
Description: as §3

[16] = test system: ducksalad (Heteranthera limosa); assay: Test B flooded paddy test ducksalad; conditions: Table B, Flood, scale 0 to 100
Description: as §3

[17] = test system: wheat (Triticum aestivum); assay: Test A postemergence wheat; conditions: 0 to 100 scale, 0 is no effect, 100 is complete control
Excerpt: as §1, §2

[18] = test system: ragweed (common ragweed, Ambrosia elatior); assay: Test A preemergence ragweed; conditions: 0 to 100 scale, 0 no effect, 100 complete control
Excerpt: as §1, §2

SMILES	Ryegrass, Italian plant response rating ([1]; 125 g ai/ha)	Ryegrass, Italian plant response rating ([1]; 500 g ai/ha)	Plant response rating, Ryegrass, Italian ([3]; 125 g ai/ha)	Plant response rating, Ryegrass, Italian ([3]; 500 g ai/ha)	Plant response rating, Foxtail, Giant ([4]; 125 g ai/ha)	Plant response rating, Foxtail, Giant ([4]; 500 g ai/ha)	Plant response rating, Corn (corn (Zea mays); 125 g ai/ha)	Plant response rating, Corn (corn (Zea mays); 500 g ai/ha)	Plant response rating, Pigweed ([5]; 125 g ai/ha)	Plant response rating, Pigweed ([5]; 500 g ai/ha)	Plant response rating, Galium ([6]; 125 g ai/ha)	Plant response rating, Galium ([6]; 500 g ai/ha)	Kochia plant response rating (kochia (Kochia scoparia) [7]; 125 g ai/ha)	Kochia plant response rating (kochia (Kochia scoparia) [7]; 500 g ai/ha)	Barnyardgrass plant response rating ([8]; 125 g ai/ha)	Barnyardgrass plant response rating ([8]; 500 g ai/ha)	Plant response rating, Ragweed ([9]; 125 g ai/ha)	Plant response rating, Ragweed ([9]; 500 g ai/ha)	Pigweed plant response rating ([10]; 125 g ai/ha)	Pigweed plant response rating ([10]; 500 g ai/ha)	other results
O=C1NCCC(c2cccc(C(F)(F)F)c2)C1C(=O)Nc1cccc(Cl)c1Cl (racemic) [Compound 31]	0	0	0	0	70	80	0	0	0	0	0	0	0	0	70	80	0	0	0	0	Plant response rating ([2]; 500 g ai/ha): 95; Plant response rating, Blackgrass ([11]; 125 g ai/ha): 20; Plant response rating, Blackgrass ([11]; 500 g ai/ha): 40; Foxtail, Giant plant response rating ([12]; 125 g ai/ha): 70; Foxtail, Giant plant response rating ([12]; 500 g ai/ha): 90; Plant response rating, Barnyardgrass ([13]; 125 g ai/ha): 60; Plant response rating, Barnyardgrass ([13]; 500 g ai/ha): 80; Plant response rating ([14]; 500 g ai/ha): 0; Plant response rating, Kochia (kochia (Kochia scoparia) [15]; 125 g ai/ha): 0; Plant response rating, Kochia (kochia (Kochia scoparia) [15]; 500 g ai/ha): 0; Plant response rating (rice (Oryza sativa); 500 g ai/ha): 10; Plant response rating ([16]; 500 g ai/ha): 0; Plant response rating, Wheat ([17]; 125 g ai/ha): 0; Plant response rating, Wheat ([17]; 500 g ai/ha): 0; Ragweed plant response rating ([18]; 125 g ai/ha): 0; Ragweed plant response rating ([18]; 500 g ai/ha): 0
O=C1NCCC(c2cccc(OC(F)F)c2)C1C(=O)Nc1ccccc1F (racemic) [Compound 45]	0	0	0	0	0	50	0	0	0	0	0	0	0	0	20	70	0	0	0	0	Plant response rating ([2]; 500 g ai/ha): 0; Plant response rating, Blackgrass ([11]; 125 g ai/ha): 0; Plant response rating, Blackgrass ([11]; 500 g ai/ha): 20; Foxtail, Giant plant response rating ([12]; 125 g ai/ha): 40; Foxtail, Giant plant response rating ([12]; 500 g ai/ha): 80; Plant response rating, Barnyardgrass ([13]; 125 g ai/ha): 0; Plant response rating, Barnyardgrass ([13]; 500 g ai/ha): 60; Plant response rating ([14]; 500 g ai/ha): 0; Plant response rating, Kochia (kochia (Kochia scoparia) [15]; 125 g ai/ha): 0; Plant response rating, Kochia (kochia (Kochia scoparia) [15]; 500 g ai/ha): 0; Plant response rating (rice (Oryza sativa); 500 g ai/ha): 0; Plant response rating ([16]; 500 g ai/ha): 50; Plant response rating, Wheat ([17]; 125 g ai/ha): 0; Plant response rating, Wheat ([17]; 500 g ai/ha): 0; Ragweed plant response rating ([18]; 125 g ai/ha): 0; Ragweed plant response rating ([18]; 500 g ai/ha): 0
O=C1NCCC(c2cccc(OC(F)(F)F)c2)C1C(=O)Nc1cccc(F)c1F (racemic) [Compound 39]	30	70	0	50	70	90	0	50	0	0	0	0	0	0	80	90	0	0	0	10	Plant response rating ([2]; 250 g ai/ha): 65; Plant response rating, Blackgrass ([11]; 125 g ai/ha): 0; Plant response rating, Blackgrass ([11]; 500 g ai/ha): 60; Foxtail, Giant plant response rating ([12]; 125 g ai/ha): 90; Foxtail, Giant plant response rating ([12]; 500 g ai/ha): 90; Plant response rating, Barnyardgrass ([13]; 125 g ai/ha): 80; Plant response rating, Barnyardgrass ([13]; 500 g ai/ha): 80; Plant response rating ([14]; 250 g ai/ha): 0; Plant response rating, Kochia (kochia (Kochia scoparia) [15]; 125 g ai/ha): 0; Plant response rating, Kochia (kochia (Kochia scoparia) [15]; 500 g ai/ha): 0; Plant response rating (rice (Oryza sativa); 250 g ai/ha): 0; Plant response rating ([16]; 250 g ai/ha): 100; Plant response rating, Wheat ([17]; 125 g ai/ha): 0; Plant response rating, Wheat ([17]; 500 g ai/ha): 30; Ragweed plant response rating ([18]; 125 g ai/ha): 0; Ragweed plant response rating ([18]; 500 g ai/ha): 0
O=C1NCC[C@@H](c2cccc(Cl)c2)[C@@H]1C(=O)Nc1cccc(F)c1F [Compound 43]	0	0	0	0	0	0	0	0	0	0	0	0	0	0	0	0	0	0	0	0	Plant response rating ([2]; 250 g ai/ha): 0; Plant response rating, Blackgrass ([11]; 125 g ai/ha): 0; Plant response rating, Blackgrass ([11]; 500 g ai/ha): 0; Foxtail, Giant plant response rating ([12]; 125 g ai/ha): 0; Foxtail, Giant plant response rating ([12]; 500 g ai/ha): 0; Plant response rating, Barnyardgrass ([13]; 125 g ai/ha): 0; Plant response rating, Barnyardgrass ([13]; 500 g ai/ha): 0; Plant response rating ([14]; 250 g ai/ha): 0; Plant response rating, Kochia (kochia (Kochia scoparia) [15]; 125 g ai/ha): 0; Plant response rating, Kochia (kochia (Kochia scoparia) [15]; 500 g ai/ha): 0; Plant response rating (rice (Oryza sativa); 250 g ai/ha): 0; Plant response rating ([16]; 250 g ai/ha): 0; Plant response rating, Wheat ([17]; 125 g ai/ha): 0; Plant response rating, Wheat ([17]; 500 g ai/ha): 0; Ragweed plant response rating ([18]; 125 g ai/ha): 0; Ragweed plant response rating ([18]; 500 g ai/ha): 0
O=C1NCC[C@@H](c2cccc(C(F)(F)F)c2)[C@@H]1C(=O)Nc1cccc(Cl)c1F [Compound 24]	0	0	0	20	50	80	20	30	0	0	0	0	0	0	50	80	0	0	0	0	Plant response rating ([2]; 250 g ai/ha): 0; Plant response rating, Blackgrass ([11]; 125 g ai/ha): 0; Plant response rating, Blackgrass ([11]; 500 g ai/ha): 30; Foxtail, Giant plant response rating ([12]; 125 g ai/ha): 70; Foxtail, Giant plant response rating ([12]; 500 g ai/ha): 80; Plant response rating, Barnyardgrass ([13]; 125 g ai/ha): 50; Plant response rating, Barnyardgrass ([13]; 500 g ai/ha): 80; Plant response rating ([14]; 250 g ai/ha): 0; Plant response rating, Kochia (kochia (Kochia scoparia) [15]; 125 g ai/ha): 0; Plant response rating, Kochia (kochia (Kochia scoparia) [15]; 500 g ai/ha): 0; Plant response rating (rice (Oryza sativa); 250 g ai/ha): 0; Plant response rating ([16]; 250 g ai/ha): 0; Plant response rating, Wheat ([17]; 125 g ai/ha): 20; Plant response rating, Wheat ([17]; 500 g ai/ha): 30; Ragweed plant response rating ([18]; 125 g ai/ha): 0; Ragweed plant response rating ([18]; 500 g ai/ha): 0
